Like-named read-outs stand apart in the source and are kept apart here.
Assays:
[1] = test system: maize plants (Zm-MTHFR66); details: 4480 g ae/ha dicamba (8 × dicamba), V5-V6 stage, 21 days after spraying
Excerpt: (§1) The maize plants into which the optimized MTHFR66 nucleotide sequence was introduced, the maize plants into which the natural MTHFR66 nucleotide sequence was introduced and wild-type maize plants (at V5-V6 stage) were respectively tested for the herbicide resistance effect to dicamba.
(§2) The maize plants into which the optimized MTHFR66 nucleotide sequence was introduced, the maize plants into which the natural MTHFR66 nucleotide sequence was introduced and wild-type maize T1 hybrid plants (at V5-V6 stage) were taken and sprayed with a dicamba herbicide (4480 g ae/ha, 8-fold field concentration) and a blank solvent (water) respectively. 21 days after spraying, the support root development situation was collected. A total of three strains (S1, S2 and S3) of Zm-mMTHFR66, a total of two strains (S4 and S5) of Zm-MTHFR66, and a total of 1 strain of wild type (CK) were taken; and 10-15 plants were selected from each strain and tested.

[2] = test system: wild-type maize plants (CK); details: 4480 g ae/ha dicamba (8 × dicamba), V5-V6 stage, 21 days after spraying
Excerpt: as §1, §2

[3] = test system: maize plants (Zm-mMTHFR66); details: 4480 g ae/ha dicamba (8 × dicamba), V5-V6 stage, 21 days after spraying
Excerpt: as §1, §2

[4] = test system: Arabidopsis thaliana T1 plants (At-mMTHFR66); details: 560 g ae/ha dicamba (1 × dicamba) sprayed
Excerpt: (§3) Arabidopsis thaliana was first transformed with the MTHFR66 gene. T1 transformants were initially selected from the background of untransformed seeds using a glufosinate selection scheme. The plants that were transformed with the recombinant expression vector DBN111101 were Arabidopsis thaliana plants (At mMTHFR66) into which an optimized MTHFR66 nucleotide sequence located in the chloroplast was introduced, and the plants that were transformed with the recombinant expression vector DBN111101N were Arabidopsis thaliana plants (At MTHFR66) into which a natural MTHFR66 nucleotide sequence located in the chloroplast was introduced. […] Arabidopsis thaliana T1 plants (At-mMTHFR66) into which an optimized MTHFR66 nucleotide sequence was introduced, Arabidopsis thaliana T1 plants (At-MTHFR66) into which a natural MTHFR66 nucleotide sequence was introduced and wild-type Arabidopsis thaliana plants (18 days after sowing) were tested for the herbicide tolerance effect to dicamba.
(§4) Arabidopsis thaliana T1 plants into which an optimized MTHFR66 nucleotide sequence was introduced, Arabidopsis thaliana T1 plants into which a natural MTHFR66 nucleotide sequence was introduced and wild-type Arabidopsis thaliana plants were sprayed with dicamba (560 g ae/ha, 1-fold field concentration) and a blank solvent (water) respectively. Plants were counted for the tolerance situations 7 days and 14 days after spraying: those having a consistent growth status with the blank solvent (water) group after 7 days were classified as highly resistant plants, those having curled rosette leaves after 7 days were classified as moderately resistant plants, those still not capable of bolting after 14 days were classified as lowly resistant plants, and those dead after 14 days were classified as non-resistant plants. Since each Arabidopsis thaliana T1 plant was an independent transformation event, a significant difference in individual T1 responses could be expected at a given dose. The results were shown as Table 1 and FIG. 9.

[5] = test system: Arabidopsis thaliana T1 plants (At-MTHFR66); details: 560 g ae/ha dicamba (1 × dicamba) sprayed
Excerpt: as §3, §4

[6] = test system: wild-type Arabidopsis thaliana plants; details: 560 g ae/ha dicamba (1 × dicamba) sprayed
Excerpt: as §3, §4

[7] = Determination of enzymatic activity of MTHFR66 protein (dicamba to DCSA, HPLC); type: biochemical
Experimental: Enzymatic reaction system (300 μL): containing 1 mM substrate (dicamba), 0.2 mg of MTHFR66, 1 mM tetrahydrofolate (THF) and a buffer system of Tris-HCl at a concentration of 100 mM (pH 8.0), which were reacted in a water bath at a temperature of 30° C. for 1 hour, then kept in boiling water for 1 min, after which the reaction was terminated. The reaction solution was lyophilized, and then dissolved by adding 300 μl of methanol. The amount of the generated intermediate metabolite of dicamba, 3,6-dichlorosalicylic acid (DCSA), was detected using high performance liquid chromatography (HPLC). An enzymatic activity unit is defined as: the amount of enzyme required for degradation of dicamba to generate 1 nmol of product DCSA at pH 8.0, at a temperature of 30° C. within 1 min, and is expressed as U.

[8] = Dicamba demethylation function of MTHFR66 protein in the presence of trace tetrahydrofolate; type: biochemical; details: 1 mM dicamba, 30° C., 1 hour
Experimental: […] The reaction solution was lyophilized, and then dissolved by adding 300 μl of methanol. The amount of the generated intermediate metabolite of dicamba, DCSA, was detected using high performance liquid chromatography (HPLC).

[9] = Hydrolase functional determination and product identification of MTHFR66 protein; type: biochemical; details: absence of the electron acceptor NAD+
Experimental: Enzymatic reaction system (300 μL): containing 0.2 mg of MTHFR66, 1 mM 5-methyl-tetrahydrofolate (5-CH3—H4F) and a buffer system of Tris-HCl at a concentration of 100 mM (pH 8.0), which were reacted in a water bath at a temperature of 30° C. for 1 hour, then kept in boiling water for 1 min, after which the reaction was terminated. The reaction solution was lyophilized, dissolved by adding 300 μl of 0.1 mol/L KH2PO4 (pH 6.8, 1% ascorbic acid and 0.1% β-mercaptoethanol), filtered using a filter membrane (with a pore size of 0.22 μm), and detected using high performance liquid chromatography. Liquid chromatography conditions were: mobile phase: 0.05 mol/l KH2PO4 (pH 3.0):acetonitrile (90:10, V/V), Zorbax C218 ODS Spherex reversed phase column (5 μm, 4.6 mm×250 mm, Agilent, USA), column temperature of 23° C., UV-detector, with a detection wavelength of 298 nm, a sample injection volume of 20 μl, and a flow rate of 1.0 mL/min. Quantification was performed by peak area according to the external standard method.
Metabolites were identified through HPLC-MS (high performance liquid chromatography-mass spectrum) under the conditions as follows: mobile phase: 0.05 mol/l KH2PO4 (pH 3.0):acetonitrile (90:10, V/V), Zorbax XDB-C18, 5 cm×0.46 cm, 1.8 mm reversed phase column (5 μm, 4.6 mm×250 mm, Agilent, USA), and a flow rate of 0.25 mL/min. […]

[10] = curled rosette leaves after 7 days
[11] = growth consistent with water group after 7 days
[12] = not capable of bolting after 14 days

## COc1c(Cl)ccc(Cl)c1C(=O)O [dicamba, 3,6-dichloro-o-anisic acid]
[1]; strain S4 (Zm-MTHFR66)
  Proportion of normally developed support root: 16.67%
  Support root abnormally developed (number of plants): 10
  Support root normally developed (number of plants): 2
[1]; strain S5 (Zm-MTHFR66)
  Proportion of normally developed support root: 30.77%
  Support root abnormally developed (number of plants): 9
  Support root normally developed (number of plants): 4
[2]
  Proportion of normally developed support root: 0%
  Support root abnormally developed (number of plants): 16
  Support root normally developed (number of plants): 0
[3]; strain S1 (Zm-mMTHFR66)
  Proportion of normally developed support root: 92.31%
  Support root abnormally developed (number of plants): 1
  Support root normally developed (number of plants): 12
[3]; strain S2 (Zm-mMTHFR66)
  Proportion of normally developed support root: 90.91%
  Support root abnormally developed (number of plants): 1
  Support root normally developed (number of plants): 10
[3]; strain S3 (Zm-mMTHFR66)
  Proportion of normally developed support root: 83.33%
  Support root abnormally developed (number of plants): 2
  Support root normally developed (number of plants): 10
[4]; [10]
  Moderately resistant (number of plants): 18
[4]; dead after 14 days
  Non-resistant (number of plants): 5
[4]; [11]
  Highly resistant (number of plants): 0
[4]; [12]
  Lowly resistant (number of plants): 0
[5]; [10]
  Moderately resistant (number of plants): 3
[5]; dead after 14 days
  Non-resistant (number of plants): 19
[5]; [11]
  Highly resistant (number of plants): 0
[5]; [12]
  Lowly resistant (number of plants): 2
[6]; [10]
  Moderately resistant (number of plants): 0
[6]; dead after 14 days
  Non-resistant (number of plants): 22
[6]; [11]
  Highly resistant (number of plants): 0
[6]; [12]
  Lowly resistant (number of plants): 0

B1: MTHFR66 protein: herbicide resistant protein, methyltetrahydrofolate reductase, amino acid sequence SEQ ID NO: 2 (289 amino acids) (protein, listed as Sphingomonas paucimobilis)
chain: MGSPVMAIDCDSVPDNLVHCFSIEMTGKDIDALQAAAPLLPPGTSVAVTFLPGENYETRIAACKAVRDLGFEPMPHFSARRIQDEAEFHDFLHAVVAEAKVRRCFVIAGDAAEPEGPYADSMQLIASGAFEAAGIDLIGVAGHPEGHPNMTAGEATAVLRAKTDEIERRGMAALIVTQFTFDAARTLDWLAEVRQAGIDVPVLLGVPGPAGIKTLLRFAARCGVGASASVLSKYGISIGHLLGSAGPDRFVDALRAGIGEQHGHVRLHFYPFGGLDKTARWIADYARKH
[7]; 1 mM dicamba, 0.2 mg MTHFR66, 1 mM THF, Tris-HCl pH 8.0, 30° C., 1 hour
  DCSA generated within 1 hour: 0.15 mM
[7]; U = enzyme generating 1 nmol DCSA from dicamba at pH 8.0, 30° C. within 1 min
  specific enzymatic activity: 3.75 U/mg
[8]; in the presence of 0.01 mM tetrahydrofolate
  demethylation of dicamba to DCSA: can demethylate dicamba to generate DCSA
[8]; in the presence of 0.5 mM of tetrahydrofolate
  demethylation of dicamba to DCSA: can fully demethylate 1 mM dicamba to generate DCSA
[9]
  product of 5-methyl-tetrahydrofolate metabolism (HPLC-MS): can hydrolyze 5-methyl-tetrahydrofolate to tetrahydrofolate
[9]; 1 mM 5-methyl-tetrahydrofolate, 30° C., 1 hour
  transformation of 5-methyl-tetrahydrofolate (HPLC): can transform 5-methyl-tetrahydrofolate to other substances

Reference: patent publication US11365425B2, “Resistant protein for use in herbicide, encoding gene and application thereof” (BEIJING DABEINONG BIOTECHNOLOGY CO., LTD., priority 2016, dated 2022)
